From patent US7202219B1, “Use of D-tagatose as a prebiotic food component” (priority 1998, dated 2007)

Columns and labels:
colon content = assay: In vitro fermentation of D-tagatose by pig caecum/colon content slurries (Example 1); format: cell-based; conditions: for Tagatose degradation: in vitro incubation; for Mole % of SCFA after microbial fermentation of D-Tagatose: Acetate / Mole % of SCFA after microbial fermentation of D-Tagatose: Butyrate / Mole % of SCFA after microbial fermentation of D-Tagatose: Capronate / Mole % of SCFA after microbial fermentation of D-Tagatose: Formate / Mole % of SCFA after microbial fermentation of D-Tagatose: Heptanoate / Mole % of SCFA after microbial fermentation of D-Tagatose: Propionate / Mole % of SCFA after microbial fermentation of D-Tagatose: Valerate: 1% tagatose added, 0–4 h
Description: In the study, one group of 8 pigs was having a standard diet+15% sucrose (unadapted), and another group of 8 pigs was fed a standard diet+5% sucrose+10% D-tagatose (adapted) for 17 days.
On the 17. day the pigs were killed 3 hours after the morning feeding, and the entire gastrointestinal tract was sectioned. […] 20% slurries were incubated at 37° C. and anaerobic conditions for 4 hours with or without 1% D-tagatose added. The amount of SCFA produced by D-tagatose is calculated as the amount produced in the assay with 1% D-tagatose added subtracted by the amount produced in the assay without D-tagatose.

[1] = Concentration of butyrate in gastrointestinal sections at slaughtering (Example 2); format: in vivo, pig; conditions: pigs, 0, 10 or 20% D-tagatose in diet for 33 days; hind gut (FIG. 1)
Description: (§1) In this study, 3 groups of each 2 pigs were having a standard pig diet+20% sucrose, a standard pig diet+10% sucrose+10% D-tagatose, and a standard pig diet+20% D-tagatose for 33 days. The pigs were killed on the 33. day 6 hours after morning feeding, and the entire gastrointestinal tract was divided into 8 segments.
(§2) The concentrations of the various SCFA were measured in the 8 sections immediately after killing, and further the content from the 8 sections was used for 12 hour in vitro incubations at 37° C. and anaerobic conditions. In this in vitro assay no D-tagatose was added, and the fermentation products originate from unabsorbed D-tagatose and other undigestible food components from the diets.

[2] = test system: content from the 8 sections; assay: 12 hour in vitro incubation of content from gut sections, no D-tagatose added (Example 2); format: cell-based, pig
Description: as §1, §2
The data presented here are normalized to production of SCFA pr kg feed.

[3] = In vivo absorption of SCFA in the blood (Example 3); design: species or system pig
Description: In this pig study the in vivo absorption of SCFA in the blood is measured by taking blood samples simultaneously from 3 catheters in Vena Mesenterica, Ateria mesenterica and Vena Porta over a 12 hour period after the morning feeding. The absorption is measured in the same 5 pigs at 3 different occasions, that is after 7 days adaptation to standard pig diet+20% sucrose (sucrose), the first day of switching to a standard pig diet+20% D-tagatose (unadapted), and after 7 days adaptation to a standard pig diet+20% D-tagatose (adapted). The concentration of SCFA's is determined in samples from the portal vein, that is the blood stream leading from the digestive system to the liver, and in the arterial blood, that is the blood stream before the digestive system. The difference between the two integrated by time is a measure of the intestinal absorption of SCFA's.
The area between the 2 curves is equal to the total absorption of butyrate from the intestine.

human faeces = assay: In vitro fermentation of tagatose by incubation of human faeces (Example 4); format: cell-based
Description: (§3) In this study 16 human volunteers deliver a faeces sample before any intake of D-tagatose (unadapted) and another faeces sample after 14 days' intake of 3×10 g of D-tagatose pr day (adapted). The 16 volunteers are on controlled diet 4 days before the delivery of each faeces samples. Faeces slurries, 20%, were incubated at 37° C. and anaerobic conditions for 48 hours with or without 1% D-tagatose added. Samples for determination of SCFA were taken after 4 hours and after 48 hours of incubation. The amount of SCFA produced by D-tagatose is calculated as the amount produced in the assay with 1% D-tagatose added subtracted by the amount produced in the assay without D-tagatose. Further, the delivered faeces samples were tested for content of various intestinal bacteria counts by spreading on selective media.

intestinal bacteria = assay: Counts of intestinal bacteria in faeces on selective media (Example 4); format: in vivo; conditions: human volunteers, 3×10 g D-tagatose pr day for 14 days versus before intake (FIG. 5)
Description: as §3

[4] = oral; cited from earlier work
human faecal incubations = conditions: cited from earlier work; for proportion of butyrate on fermentation: human faecal in vitro system (Mortensen et al. 1988)
[5] = normalized pr kg feed, 0, 10 or 20% D-tagatose in diet (FIG. 3)
[6] = addition of D-tagatose to the diet
[7] = pigs after 7 days of adaptation to 20% D-tagatose diet (FIG. 4)
[8] = 4 hours of incubation, Non-adapted
[9] = 48 hours of incubation, Adapted
[10] = 48 hours of incubation, Non-adapted

O=C(CO)[C@@H](O)[C@@H](O)[C@H](O)CO [D-tagatose]
Tagatose degradation (colon content; Control pigs (unadapted), colon): 1.1 g/h/kg digesta | Mole % of SCFA after microbial fermentation of D-Tagatose: Acetate (colon content; Control pigs, caecum): 54.8 Mole % | Mole % of SCFA after microbial fermentation of D-Tagatose: Butyrate (colon content; Control pigs, caecum): 18.2 Mole % | Mole % of SCFA after microbial fermentation of D-Tagatose: Capronate (colon content; Control pigs, caecum): 2.0 Mole % | Mole % of SCFA after microbial fermentation of D-Tagatose: Formate (colon content; Control pigs, caecum): 2.5 Mole % | Mole % of SCFA after microbial fermentation of D-Tagatose: Heptanoate (colon content; Control pigs, caecum): 0.2 Mole % | Mole % of SCFA after microbial fermentation of D-Tagatose: Propionate (colon content; Control pigs, caecum): 11.2 Mole % | Mole % of SCFA after microbial fermentation of D-Tagatose: Valerate (colon content; Control pigs, caecum): 11.1 Mole % | Tagatose degradation (colon content; Control pigs, caecum): 2.7 g/h/kg digesta | Mole % of SCFA after microbial fermentation of D-Tagatose: Acetate (colon content; Control pigs, colon): 70.1 Mole % | Mole % of SCFA after microbial fermentation of D-Tagatose: Butyrate (colon content; Control pigs, colon): 16.7 Mole % | Mole % of SCFA after microbial fermentation of D-Tagatose: Capronate (colon content; Control pigs, colon): 4.8 Mole % | Mole % of SCFA after microbial fermentation of D-Tagatose: Formate (colon content; Control pigs, colon): 0.0 Mole % | Mole % of SCFA after microbial fermentation of D-Tagatose: Heptanoate (colon content; Control pigs, colon): 0.6 Mole % | Mole % of SCFA after microbial fermentation of D-Tagatose: Propionate (colon content; Control pigs, colon): 0.0 Mole % | Mole % of SCFA after microbial fermentation of D-Tagatose: Valerate (colon content; Control pigs, colon): 7.8 Mole % | Tagatose degradation (colon content; D-tagatose pigs (adapted), colon): 15.3 g/h/kg digesta | Mole % of SCFA after microbial fermentation of D-Tagatose: Acetate (colon content; D-tagatose pigs, caecum): 21.5 Mole % | Mole % of SCFA after microbial fermentation of D-Tagatose: Butyrate (colon content; D-tagatose pigs, caecum): 21.8 Mole % | Mole % of SCFA after microbial fermentation of D-Tagatose: Capronate (colon content; D-tagatose pigs, caecum): 1.9 Mole % | Mole % of SCFA after microbial fermentation of D-Tagatose: Formate (colon content; D-tagatose pigs, caecum): 14.4 Mole % | Mole % of SCFA after microbial fermentation of D-Tagatose: Heptanoate (colon content; D-tagatose pigs, caecum): 0.0 Mole % | Mole % of SCFA after microbial fermentation of D-Tagatose: Propionate (colon content; D-tagatose pigs, caecum): 17.0 Mole % | Mole % of SCFA after microbial fermentation of D-Tagatose: Valerate (colon content; D-tagatose pigs, caecum): 23.4 Mole % | Tagatose degradation (colon content; D-tagatose pigs, caecum): 3.7 g/h/kg digesta | Mole % of SCFA after microbial fermentation of D-Tagatose: Acetate (colon content; D-tagatose pigs, colon): 23.3 Mole % | Mole % of SCFA after microbial fermentation of D-Tagatose: Butyrate (colon content; D-tagatose pigs, colon): 46.3 Mole % | Mole % of SCFA after microbial fermentation of D-Tagatose: Capronate (colon content; D-tagatose pigs, colon): 6.8 Mole % | Mole % of SCFA after microbial fermentation of D-Tagatose: Formate (colon content; D-tagatose pigs, colon): 3.7 Mole % | Mole % of SCFA after microbial fermentation of D-Tagatose: Heptanoate (colon content; D-tagatose pigs, colon): 0.8 Mole % | Mole % of SCFA after microbial fermentation of D-Tagatose: Propionate (colon content; D-tagatose pigs, colon): 4.0 Mole % | Mole % of SCFA after microbial fermentation of D-Tagatose: Valerate (colon content; D-tagatose pigs, colon): 15.1 Mole % | butyrate in SCFA profile (colon content; colon content from unadapted pigs): less than 20% | concentration of butyrate in the various gastrointestinal sections at the time of slaughtering [1]: increasing in a dose response manner | 12 hour in vitro production of butyrate ([2]; content from gut sections of pigs on 0, 10 or 20% D-tagatose diet (FIG. 2)): acting in a dose response manner | total 12 hour in vitro production of SCFA in the gut: acetate [2, 5]: not influenced | total 12 hour in vitro production of SCFA in the gut: butyrate [2, 5]: in a dose response manner promote the microbiological production of butyrate | total absorption of butyrate (area between portal and arterial curves) ([3]; adapted versus unadapted to 20% D-tagatose diet): does not differ in the adapted and unadapted state | absorption of acetate [3, 6]: not increased | absorption of propionate [3, 6]: not increased | concentration of butyrate in arterial blood [3, 7]: increasing | concentration of butyrate in the portal blood [3, 7]: very steep increase a few hours after feeding | time of adaptation to butyrate production ([3]; pigs in vivo, 20% D-tagatose diet): ≤ 12 h | butyrate in the portal vein ([3]; pigs unadapted, first day of 20% D-tagatose diet, 12 hours after feeding (FIG. 4)): gradually increasing over the 12 hours of measuring | Molar Ratios (Mole %) of SCFA's: Acetic acid (human faeces; 4 hours of incubation, Adapted): 42.1 Mole % | Molar Ratios (Mole %) of SCFA's: Butyric acid (human faeces; 4 hours of incubation, Adapted): 34.7 Mole % | Molar Ratios (Mole %) of SCFA's: Capronic acid (human faeces; 4 hours of incubation, Adapted): 3.5 Mole % | Molar Ratios (Mole %) of SCFA's: Formic acid (human faeces; 4 hours of incubation, Adapted): 5.8 Mole % | Molar Ratios (Mole %) of SCFA's: Heptanic acid (human faeces; 4 hours of incubation, Adapted): 0.6 Mole % | Molar Ratios (Mole %) of SCFA's: Lactic acid (human faeces; 4 hours of incubation, Adapted): 9.0 Mole % | Molar Ratios (Mole %) of SCFA's: Propionic acid (human faeces; 4 hours of incubation, Adapted): 4.1 Mole % | Molar Ratios (Mole %) of SCFA's: Valeric acid (human faeces; 4 hours of incubation, Adapted): 1.0 Mole % | Total SCFA (production mmol/l) (human faeces; 4 hours of incubation, Adapted): 24.3 mmol/L | Molar Ratios (Mole %) of SCFA's: Acetic acid (human faeces; [8]): 62.8 Mole % | Molar Ratios (Mole %) of SCFA's: Butyric acid (human faeces; [8]): 24.5 Mole % | Molar Ratios (Mole %) of SCFA's: Capronic acid (human faeces; [8]): 6.7 Mole % | Molar Ratios (Mole %) of SCFA's: Formic acid (human faeces; [8]): 0.5 Mole % | Molar Ratios (Mole %) of SCFA's: Heptanic acid (human faeces; [8]): 1.1 Mole % | Molar Ratios (Mole %) of SCFA's: Lactic acid (human faeces; [8]): 3.9 Mole % | Molar Ratios (Mole %) of SCFA's: Propionic acid (human faeces; [8]): 0.0 Mole % | Molar Ratios (Mole %) of SCFA's: Valeric acid (human faeces; [8]): 3.0 Mole % | Total SCFA (production mmol/l) (human faeces; [8]): 8.8 mmol/L | Molar Ratios (Mole %) of SCFA's: Acetic acid (human faeces; [9]): 35.3 Mole % | Molar Ratios (Mole %) of SCFA's: Butyric acid (human faeces; [9]): 47.0 Mole % | Molar Ratios (Mole %) of SCFA's: Capronic acid (human faeces; [9]): 13.5 Mole % | Molar Ratios (Mole %) of SCFA's: Formic acid (human faeces; [9]): 0.1 Mole % | Molar Ratios (Mole %) of SCFA's: Heptanic acid (human faeces; [9]): 1.2 Mole % | Molar Ratios (Mole %) of SCFA's: Lactic acid (human faeces; [9]): 3.0 Mole % | Molar Ratios (Mole %) of SCFA's: Propionic acid (human faeces; [9]): 0.5 Mole % | Molar Ratios (Mole %) of SCFA's: Valeric acid (human faeces; [9]): 1.6 Mole % | Total SCFA (production mmol/l) (human faeces; [9]): 44.0 mmol/L | Molar Ratios (Mole %) of SCFA's: Acetic acid (human faeces; [10]): 37.7 Mole % | Molar Ratios (Mole %) of SCFA's: Butyric acid (human faeces; [10]): 38.7 Mole % | Molar Ratios (Mole %) of SCFA's: Capronic acid (human faeces; [10]): 15.2 Mole % | Molar Ratios (Mole %) of SCFA's: Formic acid (human faeces; [10]): 0.0 Mole % | Molar Ratios (Mole %) of SCFA's: Heptanic acid (human faeces; [10]): 1.6 Mole % | Molar Ratios (Mole %) of SCFA's: Lactic acid (human faeces; [10]): 8.6 Mole % | Molar Ratios (Mole %) of SCFA's: Propionic acid (human faeces; [10]): 0.0 Mole % | Molar Ratios (Mole %) of SCFA's: Valeric acid (human faeces; [10]): 1.2 Mole % | Total SCFA (production mmol/l) (human faeces; [10]): 49.0 mmol/L | time of adaptation in the in vitro incubation system (human faeces; human faeces slurry, 1% D-tagatose): ≤ 48 h | entero-bacteria in faeces (intestinal bacteria): decreased | number of lactic acid bacteria in faeces (intestinal bacteria): increased in number | number of lactobacilli in faeces (intestinal bacteria): increased in number | ingested D-tagatose absorbed in the small intestine [4]: 15–20%

O=C[C@H](O)[C@@H](O)[C@@H](O)[C@H](O)C(=O)O [galacturonic acid]
proportion of butyrate on fermentation (human faecal incubations): high proportion of butyrate

OC[C@@H](O)[C@@H](O)[C@H](O)[C@@H](O)CO [sorbitol]
proportion of butyrate on fermentation (human faecal incubations): high proportion of butyrate

O=C(O)[C@H]1OC(O)[C@H](O)[C@@H](O)[C@@H]1O (some centres unmarked) [glucoronic acid]
proportion of butyrate on fermentation (human faecal incubations): high proportion of butyrate

OC[C@@H](O)[C@@H](O[C@H]1O[C@H](CO)[C@@H](O)[C@H](O)[C@H]1O)[C@H](O)[C@@H](O)CO [maltitol]
butyrate on in vitro incubation (human faecal incubations; Rapaille and Bornet 1997): 10%
